In ChEMBL document CHEMBL4007467, “Effects of 6-paradol, an unsaturated ketone from gingers, on cytochrome P450-mediated drug metabolism” (Bioorg Med Chem Lett, 2017):
pIC50: −log10 of the molar value.

Tests used:
Format in all cases: ADME
CYP2A6 [1] = target: T1, CYP2A6 (Homo sapiens, UniProt P11509); assay: Inhibition of CYP2A6 in human liver microsomes assessed as enzyme-mediated metabolite formation at 1 uM using coumarin as substrate incubated for 5 mins followed by NADPH addition measured after 30 mins by LC-MS/MS analysis relative to control; parameters: scale not given: the % may be the effect or the level left; conditions: probe coumarin, read-out: Activity
T1 sequence (P11509 whole entry): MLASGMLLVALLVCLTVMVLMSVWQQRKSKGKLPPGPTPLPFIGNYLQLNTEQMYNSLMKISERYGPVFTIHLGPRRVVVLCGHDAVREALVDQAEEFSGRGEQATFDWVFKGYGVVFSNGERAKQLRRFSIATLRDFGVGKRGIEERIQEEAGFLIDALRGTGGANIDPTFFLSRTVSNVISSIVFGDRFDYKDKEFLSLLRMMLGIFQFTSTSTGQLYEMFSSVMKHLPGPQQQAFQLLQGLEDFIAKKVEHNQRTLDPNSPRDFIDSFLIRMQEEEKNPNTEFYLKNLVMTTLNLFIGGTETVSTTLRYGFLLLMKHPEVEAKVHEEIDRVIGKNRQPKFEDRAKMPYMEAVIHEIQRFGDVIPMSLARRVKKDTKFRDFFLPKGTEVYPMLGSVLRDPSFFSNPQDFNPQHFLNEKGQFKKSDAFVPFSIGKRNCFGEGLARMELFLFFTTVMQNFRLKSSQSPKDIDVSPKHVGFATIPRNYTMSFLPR

CYP2B6 [2] = target: T2, CYP2B6 (Homo sapiens, UniProt P20813); assay: Inhibition of CYP2B6 in human liver microsomes assessed as enzyme-mediated metabolite formation at 1 uM using bupropion as substrate incubated for 5 mins followed by NADPH addition measured after 30 mins by LC-MS/MS analysis relative to control; parameters: scale not given: the % may be the effect or the level left; conditions: probe bupropion, read-out: Activity
T2 sequence (P20813 whole entry): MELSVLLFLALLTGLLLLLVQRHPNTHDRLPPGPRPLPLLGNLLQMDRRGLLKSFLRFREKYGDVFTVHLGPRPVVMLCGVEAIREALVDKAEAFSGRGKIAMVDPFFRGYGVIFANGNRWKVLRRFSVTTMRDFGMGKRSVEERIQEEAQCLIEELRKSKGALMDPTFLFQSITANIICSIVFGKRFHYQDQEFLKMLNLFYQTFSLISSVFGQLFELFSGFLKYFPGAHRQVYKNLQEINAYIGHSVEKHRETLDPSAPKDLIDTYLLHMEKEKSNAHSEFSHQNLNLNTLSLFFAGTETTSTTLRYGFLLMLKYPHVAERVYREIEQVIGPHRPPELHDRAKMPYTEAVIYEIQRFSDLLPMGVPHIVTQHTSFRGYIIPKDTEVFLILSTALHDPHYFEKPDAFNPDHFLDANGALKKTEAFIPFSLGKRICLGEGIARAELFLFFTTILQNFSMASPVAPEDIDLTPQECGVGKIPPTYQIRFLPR

CYP2B6 [3] = target: T2, CYP2B6; assay: Inhibition of CYP2B6 in human liver microsomes assessed as enzyme-mediated metabolite formation at 3 uM using bupropion as substrate incubated for 5 mins followed by NADPH addition measured after 30 mins by LC-MS/MS analysis relative to control; parameters: scale not given: the % may be the effect or the level left; conditions: probe bupropion, read-out: Activity
CYP2C9 [4] = target: T3, CYP2C9 (Homo sapiens, UniProt P11712); assay: Inhibition of CYP2C9 in human liver microsomes assessed as enzyme-mediated metabolite formation at 10 uM using diclofenac as substrate incubated for 5 mins followed by NADPH addition measured after 30 mins by LC-MS/MS analysis relative to control; parameters: scale not given: the % may be the effect or the level left; conditions: probe diclofenac, read-out: Activity
CYP3A4 [5] = target: T4, CYP3A4 (Homo sapiens, UniProt P08684); assay: Inhibition of CYP3A4 in human liver microsomes assessed as enzyme-mediated metabolite formation at 1 uM using midazolam as substrate incubated for 5 mins followed by NADPH addition measured after 30 mins by LC-MS/MS analysis relative to control; parameters: scale not given: the % may be the effect or the level left; conditions: probe midazolam, read-out: Activity
CYP3A4 [6] = target: T4, CYP3A4; assay: Inhibition of CYP3A4 in human liver microsomes assessed as enzyme-mediated metabolite formation at 10 uM using midazolam as substrate incubated for 5 mins followed by NADPH addition measured after 30 mins by LC-MS/MS analysis relative to control; parameters: scale not given: the % may be the effect or the level left; conditions: probe midazolam, read-out: Activity
CYP3A4 [7] = target: T4, CYP3A4; assay: Inhibition of CYP3A4 in human liver microsomes assessed as enzyme-mediated metabolite formation at 30 uM using midazolam as substrate incubated for 5 mins followed by NADPH addition measured after 30 mins by LC-MS/MS analysis relative to control; parameters: scale not given: the % may be the effect or the level left; conditions: probe midazolam, read-out: Activity
CYP2A6 [8] = target: T1, CYP2A6; assay: Inhibition of CYP2A6 in human liver microsomes assessed as enzyme-mediated metabolite formation at 0.1 uM using coumarin as substrate preincubated for 20 mins followed by substrate addition measured after 30 mins in presence of NADPH by LC-MS/MS analysis relative to control; parameters: scale not given: the % may be the effect or the level left; conditions: probe coumarin, read-out: Activity
CYP2C8 = target: T5, CYP2C8 (Homo sapiens, UniProt P10632); assay: Inhibition of CYP2C8 in human liver microsomes assessed as enzyme-mediated metabolite formation at 0.1 uM using paclitaxel as substrate preincubated for 20 mins followed by substrate addition measured after 30 mins in presence of NADPH by LC-MS/MS analysis relative to control; parameters: scale not given: the % may be the effect or the level left; conditions: probe paclitaxel, read-out: Activity
T5 sequence (P10632 whole entry): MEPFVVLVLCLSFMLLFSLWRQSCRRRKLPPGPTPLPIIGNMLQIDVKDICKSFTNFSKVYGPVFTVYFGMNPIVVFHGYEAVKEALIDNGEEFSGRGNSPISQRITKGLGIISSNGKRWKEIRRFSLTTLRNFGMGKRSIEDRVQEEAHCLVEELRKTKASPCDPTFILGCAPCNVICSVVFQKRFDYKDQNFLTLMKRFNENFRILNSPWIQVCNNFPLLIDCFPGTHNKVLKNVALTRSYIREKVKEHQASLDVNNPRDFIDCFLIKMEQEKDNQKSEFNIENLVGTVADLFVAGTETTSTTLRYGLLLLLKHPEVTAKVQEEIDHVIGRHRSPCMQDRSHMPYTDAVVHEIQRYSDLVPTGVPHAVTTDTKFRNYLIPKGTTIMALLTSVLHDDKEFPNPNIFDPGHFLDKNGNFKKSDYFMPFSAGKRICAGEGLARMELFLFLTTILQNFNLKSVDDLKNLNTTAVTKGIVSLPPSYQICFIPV

CYP2C9 [9] = target: T3, CYP2C9; assay: Inhibition of CYP2C9 in human liver microsomes assessed as enzyme-mediated metabolite formation at 1 uM using diclofenac as substrate preincubated for 20 mins followed by substrate addition measured after 30 mins in presence of NADPH by LC-MS/MS analysis relative to control; parameters: scale not given: the % may be the effect or the level left; conditions: probe diclofenac, read-out: Activity
CYP3A4 [10] = target: T4, CYP3A4; assay: Inhibition of CYP3A4 in human liver microsomes assessed as enzyme-mediated metabolite formation at 10 uM using testosterone as substrate preincubated for 20 mins followed by substrate addition measured after 30 mins in presence of NADPH by LC-MS/MS analysis relative to control; parameters: scale not given: the % may be the effect or the level left; conditions: probe testosterone, read-out: Activity
Cytochrome P450 2C8 = target: T6, Cytochrome P450 2C8 (Homo sapiens, UniProt P10632); assay: Inhibition of human CYP2C8 using paclitaxel as substrate incubated for 5 mins followed by NADPH addition measured after 30 mins by LC-MS/MS analysis
T6 sequence (P10632 whole entry): T5 sequence (P10632 whole entry)

T4 sequence (P08684 whole entry): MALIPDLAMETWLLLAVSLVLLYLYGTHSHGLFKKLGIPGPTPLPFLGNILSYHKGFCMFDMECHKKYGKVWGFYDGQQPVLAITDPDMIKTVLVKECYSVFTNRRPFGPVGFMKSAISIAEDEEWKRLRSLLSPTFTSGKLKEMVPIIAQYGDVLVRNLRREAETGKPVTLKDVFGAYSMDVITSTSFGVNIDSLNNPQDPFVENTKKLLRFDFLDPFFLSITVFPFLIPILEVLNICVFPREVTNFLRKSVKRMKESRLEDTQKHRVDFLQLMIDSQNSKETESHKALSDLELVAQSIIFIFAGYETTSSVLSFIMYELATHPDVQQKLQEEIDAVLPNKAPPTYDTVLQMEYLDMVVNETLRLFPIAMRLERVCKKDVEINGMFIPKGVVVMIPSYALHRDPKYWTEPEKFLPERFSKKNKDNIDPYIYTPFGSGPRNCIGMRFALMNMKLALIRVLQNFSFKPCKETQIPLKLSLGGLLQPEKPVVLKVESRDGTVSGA
T3 sequence (P11712 whole entry): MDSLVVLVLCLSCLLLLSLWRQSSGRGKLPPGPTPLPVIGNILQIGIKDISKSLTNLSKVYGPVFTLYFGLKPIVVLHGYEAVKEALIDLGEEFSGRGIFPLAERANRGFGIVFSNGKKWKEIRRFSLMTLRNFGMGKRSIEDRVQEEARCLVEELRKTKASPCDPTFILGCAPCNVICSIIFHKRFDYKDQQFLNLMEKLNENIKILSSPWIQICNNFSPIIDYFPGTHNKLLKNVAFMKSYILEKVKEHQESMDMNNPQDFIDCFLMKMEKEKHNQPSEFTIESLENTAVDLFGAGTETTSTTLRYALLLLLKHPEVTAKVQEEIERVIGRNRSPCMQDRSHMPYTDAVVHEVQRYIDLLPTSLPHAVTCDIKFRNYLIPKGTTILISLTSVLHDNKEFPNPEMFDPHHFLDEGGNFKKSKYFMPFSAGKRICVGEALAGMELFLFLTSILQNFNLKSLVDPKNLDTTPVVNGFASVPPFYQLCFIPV

`CCCCCCCC(=O)CCc1ccc(O)c(OC)c1` was tested, and the activity at 0.5 h, 1 µM (CYP2A6 [1]) was 83.6%, the activity at 0.5 h, 1 µM (CYP2B6 [2]) was 63.2% and the activity at 0.5 h, 3 µM (CYP2B6 [3]) was 65.7%. The activity at 0.5 h, 10 µM (CYP2C9 [4]) was 52.3%, the activity at 0.5 h, 1 µM (CYP3A4 [5]) was 88.5% and the activity at 0.5 h, 10 µM (CYP3A4 [6]) was 71%. For the same compound, the activity at 0.5 h, 30 µM (CYP3A4 [7]) was 72%, the activity at 0.5 h, 0.1 µM (CYP2A6 [8]) was 96.5% and the activity at 0.5 h, 0.1 µM (CYP2C8) was 83.2%. The activity at 0.5 h, 1 µM (CYP2C9 [9]) was 81.1%, the activity at 0.5 h, 10 µM (CYP3A4 [10]) was 83.6% and the pIC50 (Cytochrome P450 2C8) was 5.42. For the same compound, the “inhibition (INH)” value (Cytochrome P450 2C8; human, 0.5 h) was “Dose-dependent effect”.
